Values quoted from earlier work, collected in patent US20120021445A1, “Pluripotent Stem Cells for Drug Induced Myopathy and Malignant Hyperthermia” (priority 2010, published 2012).

Assays:
[1] = rhabdomyolysis defined as acute elevation of CK (>15 000 ULN); unit not given

SMILES	reported incidence of rhabdomyolysis [1]	lack of efficacy in malignant hyperthermia patients
CC[C@H](C)C(=O)O[C@H]1C[C@H](O)C=C2C=C[C@H](C)[C@H](CC[C@@H](O)C[C@@H](O)CC(=O)O)[C@H]21 [pravastatin]	0.04	–
O=C1CN(/N=C/c2ccc(-c3ccc([N+](=O)[O-])cc3)o2)C(O)=N1 [dantrolene]	–	up to 5%
CC[C@H](C)C(=O)O[C@H]1C[C@@H](C)C=C2C=C[C@H](C)[C@H](CC[C@@H]3C[C@@H](O)CC(=O)O3)[C@H]21 [lovostatin]	0.19	–
CC(C)c1c(C(=O)Nc2ccccc2)c(-c2ccccc2)c(-c2ccc(F)cc2)n1CC[C@@H](O)C[C@@H](O)CC(=O)O [atrovarstatin]	0.04	–
